Marks after values point to notes of the source that are not given here.
Columns and labels:
[1] = system: ICR mice; assay: in vivo; settings: female ICR mice; single-dose ip
Summary of the method: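 Female SPF ICR mice received a single ip dose in ethanol/Cremophor EL/saline (5:5:90), with dose lowered after deaths and raised otherwise. MTD defined as dose causing no death, no >10% weight loss versus Day 0 and no significant side effects; daily weights and twice-daily clinical observation over 7-14 days.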

[2] = system: HCT-116 colon cancer xenografts; assay: Tumor growth inhibition of HCT-116 colon cancer xenografts in tumor-bearing nude mice (tumor volume, TGI %, RTV, T/C %); assay type: in vivo, Balb/c Nude mice; settings: for T/C % (relative tumor proliferation rate): single-dose intraperitoneal, dosage mg/kg: G3, G4, G8 350, G5, G9 325, G6 300, G7 250;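 for T/C % (relative tumor proliferation rate): control C is the vehicle-treated model control group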
Summary of the method: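 Nude mice inoculated with HCT-116 cells (about 3×10^7 cells/mL in serum-free medium). Tumor diameter measured three times weekly and volume computed as V=3/4π(D/2)^3. Activity expressed as TGI (%) and T/C (%) from relative tumor volume Vt/V0, with V0 taken at grouping and dosing start; P<0.05 significant.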

[3] = Summary of the method: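 Female SPF Balb/c nude mice bearing subcutaneous HCT-116 xenografts (3×10^6 cells, right hind limb), grouped at 60–150 mm^3, 6 per group; vehicle ethanol/Cremophor EL/saline 5:5:90. Body weight thrice weekly; tumours excised and weighed at sacrifice; Mean±SEM, unpaired t-test, P<0.05.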
[4] = Day 0, G3-G9 groups, single IP dose, Mean±SEM
[5] = Day 4, G3-G9 groups, single IP dose, Mean±SEM
[6] = Day 6, G3-G9 groups, single IP dose, Mean±SEM
[7] = Day 8, G3-G9 groups, single IP dose, Mean±SEM
[8] = Day 11, G3-G9 groups, single IP dose, Mean±SEM
[9] = Day 13, G3-G9 groups, single IP dose, Mean±SEM
[10] = Day 15, G3-G9 groups, single IP dose, Mean±SEM
[11] = Day 18, G3-G9 groups, single IP dose, Mean±SEM
[12] = Day 20, G3-G9 groups, single IP dose, Mean±SEM
[13] = Day 22, G3-G9 groups, single IP dose, Mean±SEM

In the case of `CC(C)(C)OC(=O)Nc1ccn([C@@H]2O[C@H](CO)[C@@H](O)C2(F)F)c(=O)n1` [Compound G3, 4N-(t-butyloxycarbonyl)-2′deoxy-2′,2′-difluorocytidine], the “dose that could be tolerated (maximum tolerated dose, MTD)” value [1] is reported as 350 mg/kg, the “Day 0 (RTV)” value [2, 4] is reported as 1.00 ± 0.00 and the “Tumor volume, Day 0” value [2, 4] is reported as 52.61 ± 13.58** mm^3. For the same molecule, the “T/C % (relative tumor proliferation rate)” value ([2]; Day 0) was 0.00%, the “Day 4 (TGI %)” value ([2]; Day 4, G3-G9 groups, single IP dose) was 57.58% and the “Day 4 (RTV)” value [2, 5] was 1.72 ± 0.37. For the same molecule, the “Tumor volume, Day 4” value [2, 5] was 113.01 ± 44.54 mm^3, the “T/C % (relative tumor proliferation rate)” value ([2]; Day 4) was 91.44% and the “Day 6 (TGI %)” value ([2]; Day 6, G3-G9 groups, single IP dose) was 57.20%. For the same molecule, the “Day 6 (RTV)” value [2, 6] was 3.21 ± 0.87, the “Tumor volume, Day 6” value [2, 6] was 180.94 ± 66.04* mm^3 and the “T/C % (relative tumor proliferation rate)” value ([2]; Day 6) was 106.22%. The “Day 8 (TGI %)” value ([2]; Day 8, G3-G9 groups, single IP dose) was 58.10%, the “Day 8 (RTV)” value [2, 7] was 3.91 ± 1.20 and the “Tumor volume, Day 8” value [2, 7] was 220.12 ± 86.80* mm^3. For the same molecule, the “T/C % (relative tumor proliferation rate)” value ([2]; Day 8) was 104.00%, the “Day 11 (TGI %)” value ([2]; Day 11, G3-G9 groups, single IP dose) was 48.19% and the “Day 11 (RTV)” value [2, 8] was 7.44 ± 23.2. For the same molecule, the “Tumor volume, Day 11” value [2, 8] was 416.66 ± 160.05 mm^3, the “T/C % (relative tumor proliferation rate)” value ([2]; Day 11) was 125.12% and the “Day 13 (TGI %)” value ([2]; Day 13, G3-G9 groups, single IP dose) was 54.18%. For the same molecule, the “Day 13 (RTV)” value [2, 9] was 8.92 ± 2.48, the “Tumor volume, Day 13” value [2, 9] was 531.90 ± 203.98* mm^3 and the “T/C % (relative tumor proliferation rate)” value ([2]; Day 13) was 103.73%. For the same molecule, the “Day 15 (TGI %)” value ([2]; Day 15, G3-G9 groups, single IP dose) was 46.45%, the “Day 15 (RTV)” value [2, 10] was 13.32 ± 4.00 and the “Tumor volume, Day 15” value [2, 10] was 756.53 ± 280.79 mm^3. The “T/C % (relative tumor proliferation rate)” value ([2]; Day 15) was 127.18%, the “Day 18 (TGI %)” value ([2]; Day 18, G3-G9 groups, single IP dose) was 45.71% and the “Day 18 (RTV)” value [2, 11] was 17.04 ± 5.01. The “Tumor volume, Day 18” value [2, 11] was 1004.83 ± 385.58 mm^3, the “T/C % (relative tumor proliferation rate)” value ([2]; Day 18) was 123.71% and the “Day 20 (TGI %)” value ([2]; Day 20, G3-G9 groups, single IP dose) was 41.37%. The “Day 20 (RTV)” value [2, 12] was 21.58 ± 6.58, the “Tumor volume, Day 20” value [2, 12] was 1242.64 ± 464.52 mm^3 and the “T/C % (relative tumor proliferation rate)” value ([2]; Day 20) was 136.12%. The “Day 22 (RTV)” value [2, 13] was 24.39 ± 7.52, the “Tumor volume, Day 22” value [2, 13] was 1390.74 ± 510.70 mm^3 and the “T/C % (relative tumor proliferation rate)” value ([2]; Day 22) was 125.42%. The “maximum value of TGI %” value ([2]; day of maximum: G3 Day 8, G4 Day 11, G5 Day 11, G9 Day 4, G7 Day 8, single IP) was 58.10%, the “Weight change rate, Day 0” value [3, 4] was 0.00 ± 0.00% and the “Weight of mice, Day 0” value [3, 4] was 20.47 ± 0.42 g. The “Weight change rate, Day 4” value [3, 5] was 3.13 ± 1.03 %, the “Weight of mice, Day 4” value [3, 5] was 21.10 ± 0.41 g and the “Weight change rate, Day 6” value [3, 6] was 4.36 ± 0.88%. The “Weight of mice, Day 6” value [3, 6] was 21.35 ± 0.39 g, the “Weight change rate, Day 8” value [3, 7] was 2.86 ± 2.28% and the “Weight of mice, Day 8” value [3, 7] was 21.03 ± 0.52 g. For the same molecule, the “Weight change rate, Day 11” value [3, 8] was 4.67 ± 0.64%, the “Weight of mice, Day 11” value [3, 8] was 21.43 ± 0.56 g and the “Weight change rate, Day 13” value [3, 9] was 6.20 ± 0.88 %. For the same molecule, the “Weight of mice, Day 13” value [3, 9] was 21.75 ± 0.60 g, the “Weight change rate, Day 15” value [3, 10] was 3.40 ± 1.34% and the “Weight of mice, Day 15” value [3, 10] was 21.18 ± 0.66 g. The “Weight change rate, Day 18” value [3, 11] was 2.66 ± 1.40%, the “Weight of mice, Day 18” value [3, 11] was 21.03 ± 0.68 g and the “Weight change rate, Day 20” value [3, 12] was 2.40 ± 1.27%. For the same molecule, the “Weight of mice, Day 20” value [3, 12] was 20.98 ± 0.68 g, the “Weight change rate, Day 22” value [3, 13] was 3.33 ± 2.34% and the “Weight of mice, Day 22” value [3, 13] was 21.17 ± 0.77 g. For the same molecule, the “Day 22 Mortality” value ([3]; Day 22, single IP dose (mg/kg)) was 0% and the clinical symptoms ([3]; after single IP dose, compared with model control group) was “no significant differences in clinical symptoms”.

Source: patent publication US10174067B2, “Type of cytidine derivative and application thereof” (priority 2014, dated 2019)
